The target of experiment [1] is Folate receptor beta (Homo sapiens) (UniProt P14207). Briefly: Displacement of [3H]folic acid from human FRbeta expressed in Chinese hamster D4 cells relative to unlabeled folic acid. It is filed as cell-based. Background: Displacement assays read how much labelled ligand stays bound in the presence of the test substance.
In experiment [2] the target is Folate receptor alpha (Homo sapiens) (UniProt P15328). Description: Displacement of [3H]folic acid from human FRalpha expressed in Chinese hamster RT16 cells relative to unlabeled folic acid. It is filed as cell-based.
Experiment [3] in a line: cells. As to conditions: Cricetulus griseus, D4, 96 h.
Experiment [4] can be described thus: cells. To be noted: Cricetulus griseus, 96 h.
Experiment [5] deals with T1, Reduced folate transporter (Homo sapiens) (UniProt P41440).
T1 sequence (whole entry): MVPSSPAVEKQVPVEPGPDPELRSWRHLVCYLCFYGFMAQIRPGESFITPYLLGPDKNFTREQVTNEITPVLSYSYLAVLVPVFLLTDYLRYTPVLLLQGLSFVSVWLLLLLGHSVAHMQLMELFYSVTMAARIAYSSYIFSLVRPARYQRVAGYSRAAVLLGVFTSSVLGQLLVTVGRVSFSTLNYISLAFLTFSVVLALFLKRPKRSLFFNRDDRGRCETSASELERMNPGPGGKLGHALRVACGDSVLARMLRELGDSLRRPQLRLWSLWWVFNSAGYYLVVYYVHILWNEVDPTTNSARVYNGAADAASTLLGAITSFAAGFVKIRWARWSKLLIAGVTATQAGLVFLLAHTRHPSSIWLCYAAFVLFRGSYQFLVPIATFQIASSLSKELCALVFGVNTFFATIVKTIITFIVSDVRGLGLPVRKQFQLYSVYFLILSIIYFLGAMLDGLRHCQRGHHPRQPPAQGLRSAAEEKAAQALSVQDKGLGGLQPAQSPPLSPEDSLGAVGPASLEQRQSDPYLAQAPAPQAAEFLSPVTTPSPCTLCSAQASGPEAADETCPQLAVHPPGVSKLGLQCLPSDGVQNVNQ
Description: Displacement of [3H]MTX from human RFC expressed in Chinese hamster PC43-10 cells at 10 uM. In kind it is cell-based.

Experiment [6] in a line: cells. As to conditions: Cricetulus griseus, D4, 96 h. This is another data set of the same source.
The nature of experiment [7]: cells. To be noted: Cricetulus griseus, PC43-10, 96 h.
For experiment [8], the system named is KB. Briefly: cells. As to conditions: Homo sapiens, 96 h.
For experiment [9], the system named is R2. Briefly: cells. As to conditions: Homo sapiens, R2, 96 h.
Experiment [10] in a line: cells. As to conditions: Cricetulus griseus, RT16, 96 h.
Experiment [11] relates to IGROV-1. Description: cells. To be noted: Homo sapiens, IGROV-1, 96 h.
Experiment [12] concerns IGROV-1. Description: cells. As to conditions: Homo sapiens, IGROV-1, 96 h. This is another data set of the same source.
Experiment [13] concerns R2. Description: cells. To be noted: Homo sapiens, R2, 96 h. The source holds these as a separate data set.
Experiment [14] can be described thus: cells. To be noted: Cricetulus griseus, RT16, 96 h. The source holds these as a separate data set.
Experiment [15] has as its target T2, Proton-coupled folate transporter (Homo sapiens, UniProt Q96NT5).
T2 sequence (Q96NT5 whole entry): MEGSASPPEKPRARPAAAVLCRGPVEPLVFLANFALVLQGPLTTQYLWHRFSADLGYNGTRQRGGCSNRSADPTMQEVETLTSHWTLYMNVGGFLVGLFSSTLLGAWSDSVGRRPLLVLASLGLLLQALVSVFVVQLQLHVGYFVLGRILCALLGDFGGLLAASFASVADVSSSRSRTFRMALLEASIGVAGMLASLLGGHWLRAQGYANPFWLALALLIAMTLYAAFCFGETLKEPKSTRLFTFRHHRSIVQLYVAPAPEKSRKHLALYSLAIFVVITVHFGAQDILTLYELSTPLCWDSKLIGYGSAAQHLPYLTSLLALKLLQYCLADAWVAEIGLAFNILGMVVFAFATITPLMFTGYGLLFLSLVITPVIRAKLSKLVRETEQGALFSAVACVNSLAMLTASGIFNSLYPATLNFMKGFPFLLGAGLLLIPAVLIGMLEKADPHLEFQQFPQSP
Description: Displacement of [3H]MTX from human PCFT expressed in Chinese hamster R2 cells at pH 5.5 by Dixon plot. It is filed as cell-based.

The target of experiment [16] is T2, Proton-coupled folate transporter. Briefly: Displacement of [3H]MTX from human PCFT expressed in Chinese hamster R2 cells at pH 6.8 by Dixon plot. In kind it is cell-based.
Experiment [17] concerns KB. Briefly: Antitumor activity against human KB cells xenografted in folate deficient diet fed ICR SCID mouse assessed as tumor cell kill at 180 mg/kg, iv administered as Q4dx4 schedule starting from 4 days post tumor implantation. In kind it is functional.
Experiment [18] has as its system KB. Briefly: Antitumor activity against human KB cells xenografted in folate deficient diet fed ICR SCID mouse assessed as tumor cell killing at 112.5 mg/kg, iv administered as Q4dx4 schedule starting from 29 days post tumor implantation. In kind it is functional. On the technique in general: Xenograft models place foreign cells or tissue in a host animal.
Experiment [19] deals with KB. Briefly: Antitumor activity against human KB cells xenografted in folate deficient diet fed ICR SCID mouse assessed as tumor cell kill at 180 mg/kg, iv administered as Q4dx4 schedule starting from 29 days post tumor implantation. In kind it is functional.
For experiment [20], the system named is KB. Briefly: cells. As to conditions: Homo sapiens, 96 h. The source holds these as a separate data set.

Structures are written as SMILES. Activity calls are given as the source filed them. The calls are words filed in the database; no cut-off is given here.

Folate receptor beta (Homo sapiens), sequence (P14207 17-230 limits assumed): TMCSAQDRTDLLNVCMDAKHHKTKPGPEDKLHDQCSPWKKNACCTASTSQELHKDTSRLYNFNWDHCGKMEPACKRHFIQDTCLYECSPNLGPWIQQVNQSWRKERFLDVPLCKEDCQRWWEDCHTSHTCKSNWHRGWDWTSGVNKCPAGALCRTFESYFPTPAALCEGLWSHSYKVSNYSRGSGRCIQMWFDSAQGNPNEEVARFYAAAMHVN
Folate receptor alpha (Homo sapiens), sequence (P15328 25-234 limits assumed): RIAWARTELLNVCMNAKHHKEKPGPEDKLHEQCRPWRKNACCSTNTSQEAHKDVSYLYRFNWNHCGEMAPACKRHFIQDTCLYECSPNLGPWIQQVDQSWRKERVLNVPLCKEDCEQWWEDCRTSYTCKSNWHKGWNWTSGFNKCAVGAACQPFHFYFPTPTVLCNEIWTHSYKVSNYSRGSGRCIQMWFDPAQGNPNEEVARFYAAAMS

Consider `CN(Cc1cnc2nc(N)nc(N)c2n1)c1ccc(C(=O)N[C@@H](CCC(=O)O)C(=O)O)cc1`, for which the result in experiment [1] and in experiment [2] was inactive.

In general, IC50 refers to the midpoint of a concentration-inhibition curve. Low values mean higher potency, high ones lower potency. For `Nc1nc2[nH]c(CCCCCCc3ccc(C(=O)N[C@@H](CCC(=O)O)C(=O)O)s3)cc2c(=O)[nH]1`, the half-inhibitory concentration (IC50) in the experiment “cells [3]”, in “cells [4]” and in the experiment “cells [6]” was more than 1000 nM throughout. Moreover, the values for the relative binding affinity (RBA) in experiment [1] and in [2] were 0.4 and 0.6, respectively. For the same molecule, in experiment [5], the outcome was inactive.

As a reminder, the inhibition is the relative decrease from the control value, in per cent. The low end stands for little suppression, the high end for strong suppression. The molecule `Nc1nc(=O)c2c([nH]1)NCC(CNc1ccc(C(=O)N[C@@H](CCC(=O)O)C(=O)O)cc1)N2C=O` (mixture of isomers) returned an inhibition in experiment [5] of more than 50%.

With `Nc1nc2c(c(=O)[nH]1)C[C@@H](CCc1ccc(C(=O)N[C@@H](CCC(=O)O)C(=O)O)cc1)CN2`, the result in experiment [1] and in experiment [2] was Active. This molecule also showed an inhibition in experiment [5] of more than 50%.

In the case of `Nc1nc(N)c2nc(CNc3ccc(C(=O)N[C@@H](CCCNC(=O)c4ccccc4C(=O)O)C(=O)O)cc3)cnc2n1` [TALOTREXIN], the IC50 in “cells [7]” is 1.28 nM; with KB [8], 5.26 nM; in the experiment on R2 [9], more than 1000 nM; in the experiment “cells [10]” it was 864 nM; in the experiment on IGROV-1 [11] it was 2.47 nM; with IGROV-1 [12], 3.47 nM. In addition, the IC50 with R2 [13] was more than 1000 nM; in the experiment “cells [14]”, 409 nM; in the experiment “cells [4]”, more than 1000 nM.

Usually Ki stands for the dissociation constant of the complex between target and ligand, obtained from inhibition or displacement. Low values mean a stronger hold on the target, high ones a looser hold on the target. Take `Nc1nc2[nH]c(CCCCCc3ccc(C(=O)N[C@@H](CCC(=O)O)C(=O)O)s3)cc2c(=O)[nH]1`: the IC50 was 101 nM in the experiment with R2 [9], more than 1000 nM in the experiment “cells [4]” and more than 1000 nM in the experiment “cells [6]”. In addition, the results for the relative binding affinity (RBA) in experiment [1] and in experiment [2] were 1.1 and 0.9, respectively. In experiment [5], the outcome was inactive. In addition, the Ki in experiment [15] was determined as 100 nM; in [16], 2230 nM.

In the case of `Cc1nc(=O)c2cc(CN(C)c3ccc(C(=O)N[C@@H](CCC(=O)O)C(=O)O)s3)ccc2[nH]1`, the inhibition in experiment [5] was more than 50%.

Regarding `Nc1nc2[nH]c(CCCCc3ccc(C(=O)N[C@@H](CCC(=O)O)C(=O)O)s3)cc2c(=O)[nH]1`, the LCK in the experiment on KB [17] was 3.5; with KB [18] it was 3.8; with KB [19], 3.7. The IC50 in “cells [7]” was more than 1000 nM; in the experiment on R2 [9], 43.4 nM; in “cells [10]”, more than 1000 nM; in the experiment on IGROV-1 [11], more than 1000 nM; in the experiment on R2 [13], more than 1000 nM; in “cells [14]”, 1.82 nM. The IC50 in the experiment “cells [4]”, in the experiment with KB [20] and in “cells [6]” was more than 1000 nM throughout. Further, the outcome in experiment [5] was inactive.

Turning to `Nc1nc2[nH]cc(CCc3ccc(C(=O)N[C@@H](CCC(=O)O)C(=O)O)cc3)c2c(=O)[nH]1`, in [1], the outcome was inactive. For the same molecule, in experiment [5], the inhibition is more than 50%.

These data come from ChEMBL document CHEMBL1156866 (J Med Chem, 2010).
